From patent US20020165233A1, “Quinoxaline containing medicaments for post exposure prophylaxis of an HIV infection” (priority 1999, published 2002)

Key:
[1] = design: species or system rhesus monkeys; conditions: rhesus monkey, in vivo, sc, 15 mg/kg
Method: (§1) Nine rhesus monkeys (male, 2 years old, 2-3 kg) were seronegative for SIV, Simian T cell Leukemia Virus (STLV), B virus and Type D retroviruses. 15 mg/kg body weight of COMPOUND A was subcutaneously administered into animals twice a day (12 h interval) for 28 d. Animals were divided into three groups. All animals were intravenously administered with 100 TCID50 of RT-SHIV The first group consisted of three animals treated with COMPOUND A from 8 h post exposure for 28 d. The second group of animals was treated with COMPOUND A from 24 h post exposure for 28 d. The third group (control) received the solvent that was used to dissolve COMPOUND A (PEG400:glycerol:water=[…]) from 8 h post exposure for 28 d.

RT-SHIV [2] = experiment: Plasma viral load (quantitative RNA PCR) after post-exposure prophylaxis; format: in vivo, rhesus monkeys
Method: as §1
(§2) Blood was collected from all the animals either just before or 2 h after the drug administration on 0, 3, 7, 10, 14, 21, 29 d post exposure in order to check the drug concentration, otherwise in intervals of 2 to 8 weeks. Biopsy of inguinal lymph nodes was conducted on 17 d or 18 d and 8 weeks post exposure in two animals per group. Cerebrospinal fluid (CSF) was collected from the animals just before biopsy.
Determination of Plasma Viral Load:
Viral RNA was purified from plasma with a commercial viral RNA isolation kit (Boehringer Mannheim). Gag cDNA was PCR amplified with a commercial RNA PCR kit (Boehringer Mannheim) with the gag primers SG05i (5′-ACTGCTGATTCAAAATGCiMCC-3′), SG06i (5′-CTACTGGTCTiCTCCAAAGAGAGAATTG-3′) according to the protocol by Piatak et al. (Biotechniques 14, 70-81-1993) with modifications. Amplified gag DNA was separated by 2% agarose electrophoresis and cyber green stained DNA was analyzed with a fluorescence image analyzer (FLA2000, Fuji Photo Film). Quantitative determination of the viral RNA copy number was calculated using external standards.

[3] = design: species or system rhesus monkeys; conditions: rhesus monkey, in vivo, sc, 15 mg/kg; remark: listed apart in the source
Method: as §1, §2
Determination of COMPOUND A Concentration in Plasma and CSF:
Blood was collected from all animals just before or 2 h after drug administration to check trough (lowest) or highest blood concentration of the drug. COMPOUND A concentration in CSF was determined by HPLC.

RT-SHIV [4] = experiment: Anti-SIV ELISA (humoral response); format: in vivo, rhesus monkeys
Method: as §1
1:100 fold diluted plasma was assayed with ELISA plates coated with SIVmac239 virion lysate. Antibody titer was monitored by measuring the absorbance at 492 nm.

RT-SHIV [5] = experiment: Inhibitory activity on RT-SHIV replication in Herpes Saimiri Virus transformed monkey CD4+ T cells (P27 SIV gag antigen); format: cell-based, chimeric simian-human immunodeficiency virus (SHIV)
Method: The virus used in the experiments is a chimeric simian-human immunodeficiency virus (SHIV) that consists of SIVmac239 virus genome with replacement of reverse transcriptase gene (RT) by the corresponding HIV-1 RT gene (Ueberla, K. et al (1995), Medical Sciences 92, […]). RT-SHIV induced AIDS in experimentally infected rhesus monkeys (Ueberla, loc.cit.). Proviral RT-SHIV DNA was prepared by ligation of RT-SHIV5′ and 3′ half of SIVmac239. COS-1 virus stocks were prepared by DNA transfection of proviral DNA. Virus stocks for efficacy experiments were prepared by propagation of COS-1 virus stock in rhesus monkey peripheral blood lymphocytes (PBL). P27 antigen concentration of the virus stocks was determined with a commercial SIV gag antigen ELISA kit (Coulter). The 50% T cell infective dose (TCID50) of the stocks was determined with Herpes Simiri Virus transformed cynomolgus CD4^+ T cells (cyT/HSV).
Inhibitory Activity of COMPOUND A on RT-SHIV Replication in Herpes Saimiri Virus Transformed Monkey CD4^+ T Cells:
3×10^6 of CyT/HSV cells were infected with RT-SHIV stocks containing 10000 TCID50 for 2 h at 37° C., then washed and resuspended in the medium containing serially diluted COMPOUND A (0, 0.1, 0.3, 1, 3, 10, 30, 100, 300, 1000 nM). […] Virus growth was monitored by measuring of P27 SIV gag antigen in culture supernatant with a commercial kit.

RT-SHIV [6] = experiment: env specific cell proliferation assay; format: in vivo, rhesus monkeys
Method: as §1
Cell Proliferation Assay:
The method used was described previously [J. Virol, 1996: 70, 678-681]. In brief, PBMC was thawed and incubated as described in the CTL assay. Triplicates of PBMC (4×10^5) cells were incubated with autologous B-LCL (1×10^5) that had been infected with SIV env-rvv or control vv and fixed with 1.5% paraformaldehyde in phosphate buffered saline (PBS). ^3H-thymidine was added to 8 h before harvesting. The incorporation of ^3H-thymidine was measured by liquid scintillation counting. The stimulation index was calculated as (mean c.p.m. of PBMC cultured with env-rvv/mean c.p.m. of PBMC cultured with control vv).

CC[C@H]1C(=O)Nc2ccc(F)cc2N1C(=O)OC(C)C [Compound A, (3S)-ethyl-6-fluoro-4-isopropyloxycarbonyl-3,4-dihydroquinoxalin-2(1H)-one]
adverse effect [1]: without any adverse effect | animals with a short active viral replication (RT-SHIV [2]; 4 weeks after cessation of treatment): 50 % of the animals | viral replication (plasma viral RNA, proviral DNA, infectious cells in PBMC) (RT-SHIV [2]; during the treatment and the following 3 weeks, all treated animals): inhibited at a level below the sensitivity of the assays | viral infection in animal #5 (RT-SHIV [2]; plasma viral RNA, proviral DNA and QVI methods): no viral infection was observed | duration of immune-system assisted control following exposure (RT-SHIV [2]; rhesus macaques): at least 40 weeks | viral replication (plasma viral RNA level) (RT-SHIV [2]; subsequent to active replication around 10 weeks, up to 40 weeks post exposure, RNA PCR detection level): ≤ 1000 copy/ml | concentration in cerebral spinal fluid (CSF) relative to blood [3]: approximately one tenth | minimum level of the drug [3]: higher than the effective minimal concentration | trough concentration relative to the IC90 value [3]: 3 fold | induction of humoral response against RT-SHIV (RT-SHIV [4]; ELISA against SIV virion proteins, untreated sero-positive at 4 weeks): delayed induction of humoral response | treated animals sero-positive (RT-SHIV [4]; at 11 weeks post exp.): Two of six | humoral response of animal #5 (RT-SHIV [4]; late course): eventually lost its humoral response | suppression of RT-SHIV replication (RT-SHIV [5]; 10 nM COMPOUND A, Herpes Saimiri Virus transformed monkey CD4+ cells): more than 95% | IC90 (RT-SHIV [5]; Simian-Human immunodeficiency virus, CD4+ T, in Primates, read-out: IC90 value (RT-SHIV replication)): 8 nM | proliferative response at week 40 (RT-SHIV [6]; all treated animals versus untreated group): levels higher than those of the untreated group | env specific proliferative responses (RT-SHIV [6]; all treated animals, 3 weeks through 40 weeks post exposure, versus untreated): Significantly higher
